Assay results taken from publication PMC5772648, “Targeted NUDT5 inhibitors block hormone signaling in breast cancer cells” (Nature Communications, 2018).
Where “and” joins values, the source holds several entries; their conditions need not be identical. Identical values can stand only once.

Columns and labels:
NUDT5 in HL-60 cells = target: T1, NUDT5 in HL-60 cells (Homo sapiens, UniProt Q9UKK9); test: CETSA melt curve (apparent Tagg); format: cell-based
T1 construct: endogenous in cells; host or cells: HL-60
Procedure: For CETSA experiments with cells treated in culture, 1 × 10^6 HL-60 were treated with DMSO (0.1 % v/v final) or 20 µM compound for 3 h at 37 °C and 5% CO2 in a humidified incubator. T47D^WT cells were treated instead with 80 µM TH1659, 15 µM TH5423/5424 and 1.5 µM TH5427. The cells were harvested, washed twice with PBS and resuspended in TBS with protease inhibitors, as above. Heating was identical as before, except that immediately following heating, the cell suspensions were snap frozen in a dry ice/ethanol bath and freeze-thawed, as previously, to lyse cells. Centrifugation at 20 000 × g for 20 min at 4 °C removed cellular debris and protein aggregates, and lysates were prepared for western blotting. […]
Supplementary Figure 6: Thermal shift of NUDT5 with TH5427 by CETSA.
CETSA melt curve comparing DMSO-treated HL-60 cells to those treated with 2.5 or 20 µM TH5427. All points are shown for n=2 experiments and are normalized to SOD1 band intensity as a loading control. Representative, cropped western blots are shown. Apparent Tagg temperatures are shown below. […]

MTH1 = MTH1 (Homo sapiens, UniProt P36639); test: phosphohydrolase selectivity, malachite green assay; format: biochemical; set-up: His-tag (N); made in house; host or cells: E. coli BL21 (DE3) R3 pRARE2
Procedure: (§1) The selectivity assay for TH5427 against similar pyrophosphohydrolases was performed with MTH1, NUDT9, NUDT2, NUDT12, NUDT14, NUDT15, NUDT18, ITPase, dCTPase and dUTPase[9]. All analyses were performed by malachite green assay following 30 min incubation at room temperature in reaction buffer (100 mM Tris Acetate, pH 7.5, 40 mM NaCl, 10 mM MgAc, 1 mM DTT) with 100 µM TH5427 and preferred substrates for each enzyme (4.75 nM MTH1 with 100 µM dGTP, 8 nM NUDT15 with 100 µM dGTP, 8 nM NUDT2 with 16 µM AP4A, 2 nM NUDT5 with 50 µM ADPR, 20 nM NUDT9 with 50 µM ADPR, 20 nM NUDT12 with 50 µM NADH, 2 nM NUDT14 with 50 µM ADPR, 200 nM NUDT18 with 50 µM 8-oxo-dGTP, 0.2 nM ITPase with […], 35 nM dCTPase with 35 µM dCTP, and 1 nM dUTPase with 12.5 µM dUTP). MTH1, NUDT15, NUDT18, ITPase, dCTPase and dUTPase reactions were coupled with 0.2 U/mL pyrophosphatase, while NUDT2, NUDT5, NUDT9, NUDT12, and NUDT14 reactions were coupled by bovine intestinal phosphatase (10 U/mL).

NUDT12 = target: T2, NUDT12 (Homo sapiens, UniProt Q9BQG2); test: as above; format: biochemical
T2 construct: His-tag (N); made in house; host or cells: E. coli BL21 (DE3) R3 pRARE2
Procedure: as §1

NUDT14 = target: T3, NUDT14 (Homo sapiens, UniProt O95848); test: as above; format: biochemical
T3 construct: His-tag (N); made in house; host or cells: E. coli BL21 (DE3) R3 pRARE2
T3 sequence (O95848 1-222): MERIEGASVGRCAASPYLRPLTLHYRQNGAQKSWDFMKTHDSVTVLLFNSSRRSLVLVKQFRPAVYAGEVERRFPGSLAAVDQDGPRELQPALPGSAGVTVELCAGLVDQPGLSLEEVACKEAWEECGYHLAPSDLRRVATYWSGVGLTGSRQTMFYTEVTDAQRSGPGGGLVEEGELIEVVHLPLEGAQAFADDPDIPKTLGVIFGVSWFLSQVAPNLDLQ
Procedure: as §1

U-2 OS cells = test: DNA damage signaling by immunofluorescence (γH2A.X, 53BP1, RPA); format: cell-based; settings: 10 µM, 72 h
Procedure: Following siRNA knockdown for 48 h, 10 000 U-2 OS cells were seeded per well in black, clear-bottomed 96-well plates (BD Falcon) and allowed to grow for an additional 48 h. For inhibitor treatment experiments, cells were plated at 2000 per well and 10 µM TH5427 was added the following day for an additional 72 h. Cells were washed with PBS and then fixed with 4% paraformaldehyde in PBS (Santa Cruz) with 0.5% Triton X-100 for 15 min. Primary antibodies were γH2A.X (Millipore, 1:1000 or Cell Signaling, 1:1000), 53BP1 (Bethyl, 1:1000 or Abcam, 1:500) and RPA32 (Cell Signaling, 1:1000) diluted in 3% BSA/PBS and incubated at 4 °C overnight. Alexa Fluor secondary antibodies (ThermoFisher) were used at 1:1000 diluted in 3% BSA/PBS for 1 h at room temperature. DNA was counterstained with DAPI and plates were visualized using an ImageXpress high-throughput microscope (Molecular Devices) with 20x objective. Image analysis was performed with CellProfiler software (Broad Institute).

T2 sequence (Q9BQG2 whole entry): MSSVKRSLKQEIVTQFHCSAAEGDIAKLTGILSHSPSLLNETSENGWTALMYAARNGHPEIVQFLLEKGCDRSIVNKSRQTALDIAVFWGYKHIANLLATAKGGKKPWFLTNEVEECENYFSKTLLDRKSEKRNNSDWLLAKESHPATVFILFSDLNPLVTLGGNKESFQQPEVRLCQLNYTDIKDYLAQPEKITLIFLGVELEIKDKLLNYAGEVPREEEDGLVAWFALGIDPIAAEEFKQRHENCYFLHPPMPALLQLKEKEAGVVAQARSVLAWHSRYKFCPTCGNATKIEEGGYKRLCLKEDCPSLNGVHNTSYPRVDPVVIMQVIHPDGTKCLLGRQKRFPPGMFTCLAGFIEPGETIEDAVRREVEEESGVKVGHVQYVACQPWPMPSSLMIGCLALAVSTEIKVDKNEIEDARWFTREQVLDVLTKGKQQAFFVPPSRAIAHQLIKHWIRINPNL

Cn1c(=O)c2c(nc(N3CCNCC3)n2Cc2nnc(-c3ccc(Cl)c(Cl)c3)o2)n(C)c1=O [TH5427]
shift of NUDT5 apparent Tagg (NUDT5 in HL-60 cells): ≈ 8 °C
inhibition at 100 µM (MTH1; 100 µM): 82%
IC50 (MTH1; dose-response, malachite green assay): 20.3 µM and 20 µM
selectivity for NUDT5 over MTH1 (MTH1; in vitro, ratio of IC50 values): 690 fold
inhibition at 100 µM (NUDT12): 66%
inhibition at 100 µM (NUDT14): 38%
DNA damage signaling (U-2 OS cells): neither induced significant DNA damage signaling
